Source: patent US20210212984A1, “FORMULATION FOR PAIN MANAGEMENT” (Zyus Life Sciences Inc., priority 2019, published 2021)
Where “and” joins values, the source holds several entries; their conditions need not be identical. Equal values may be shown once. Read-outs that look alike come from different tables or passages of the source.

What was measured:
human TRPA1 channel = biological target: T1, human TRPA1 channel (Homo sapiens, UniProt O75762); assay: ScreenPatch assay (IonWorks Barracuda), agonist mode, TRPA1 expressed in CHO cells; assay type: cell-based; conditions: for EC50: read-out: EC50, CBC CRC
T1 construct: expressed in transfected cells; host or cells: CHO cells
T1 sequence (O75762 whole entry): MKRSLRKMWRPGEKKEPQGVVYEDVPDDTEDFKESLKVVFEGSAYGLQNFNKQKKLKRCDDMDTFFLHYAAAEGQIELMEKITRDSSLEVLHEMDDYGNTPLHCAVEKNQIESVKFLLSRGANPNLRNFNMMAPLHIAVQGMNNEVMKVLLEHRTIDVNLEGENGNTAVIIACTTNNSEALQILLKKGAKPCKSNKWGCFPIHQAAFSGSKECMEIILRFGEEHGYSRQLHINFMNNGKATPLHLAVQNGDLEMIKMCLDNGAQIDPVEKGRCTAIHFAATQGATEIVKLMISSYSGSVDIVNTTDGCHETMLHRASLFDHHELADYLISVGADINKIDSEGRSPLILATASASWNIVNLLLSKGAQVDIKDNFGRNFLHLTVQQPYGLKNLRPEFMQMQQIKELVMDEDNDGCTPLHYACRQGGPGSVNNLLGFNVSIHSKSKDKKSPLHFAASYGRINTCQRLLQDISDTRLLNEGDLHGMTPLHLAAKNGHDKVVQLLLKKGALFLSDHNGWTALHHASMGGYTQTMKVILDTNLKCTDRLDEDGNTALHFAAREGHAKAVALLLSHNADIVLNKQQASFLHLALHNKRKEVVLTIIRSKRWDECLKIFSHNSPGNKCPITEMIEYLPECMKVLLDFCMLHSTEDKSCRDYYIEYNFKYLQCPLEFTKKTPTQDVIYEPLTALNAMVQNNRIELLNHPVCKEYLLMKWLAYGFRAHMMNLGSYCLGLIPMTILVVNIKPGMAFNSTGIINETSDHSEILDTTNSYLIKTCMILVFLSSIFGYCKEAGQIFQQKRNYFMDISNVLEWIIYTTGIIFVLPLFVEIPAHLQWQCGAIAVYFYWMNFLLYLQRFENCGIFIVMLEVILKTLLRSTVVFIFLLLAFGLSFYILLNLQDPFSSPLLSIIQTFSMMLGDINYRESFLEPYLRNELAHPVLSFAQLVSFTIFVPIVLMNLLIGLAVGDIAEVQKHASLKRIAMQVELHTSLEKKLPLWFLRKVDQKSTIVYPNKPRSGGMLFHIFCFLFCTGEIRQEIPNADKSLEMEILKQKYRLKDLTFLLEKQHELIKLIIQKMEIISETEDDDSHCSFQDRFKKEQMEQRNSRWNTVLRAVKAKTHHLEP
Method: Formulations for pain management were tested for effects on the human TRPA1 channel, expressed in mammalian cells using the ScreenPatch® assay (IonWorks™ Barracuda Based Assay): agonist mode. The data presented confirming a synergistic effect of cannabinoids (CBD:THC:CBC) at the ion channel level.
Test Articles. The test articles, also referenced herein as test formulations, were evaluated in an 8-point concentration-response format (4 replicate wells/concentration, Table 4A & Table 4B). The test articles were dissolved and initially serially diluted in dimethyl sulfoxide (DMSO). The final dilution was made in extracellular solution. The final DMSO concentration was 0.6% (v/v).
Positive Control Treatment Groups. Stock solutions of positive control articles were prepared in batches, aliquoted for individual use. The positive control test solutions were prepared fresh on the day of experiment. The final DMSO concentration was 0.6% (v/v). […] Reference antagonist, ruthenium red (0-10 μM), was used for both TRPA1.
Test System: TRPA1 ionotropic receptors expressed in CHO cells.
Test Platform: Ionworks Barracuda™
Electrophysiological Procedures. Intracellular solution (mM): 50 mM CsCl, 90 mM CsF, 2 mM MgCl2, 5 mM EGTA, 10 mM HEPES. Adjusted to pH 7.2 with CsOH. This solution was prepared in batches and stored at room temperature. In preparation for a recording session, the intracellular solution was loaded into the intracellular compartment of the PPC planar electrode.
Extracellular solution, HB-PS (composition in mM): NaCl, 137; KCl, 1.0; MgCl2, 2; CaCl2, 2; HEPES, 10; Glucose, 10; pH adjusted to 7.4 with NaOH (refrigerated until use). Holding potential: −70 mV, potential during agonist/antagonist application: −70 mV.
Recording procedure. Extracellular buffer was loaded into the PPC plate wells (11 μL per well). Cell suspension was pipetted into the wells (9 μL per well) of the PPC planar electrode.
Whole-cell recording configuration was established via patch perforation with membrane currents recorded by on-board patch clamp amplifiers.
Single application (scan) protocol was used.
Test Article Administration. The application consisted of the addition of 20 μL of 2× concentrated test article solution at 10 μL/s (2 second total application time).
TRPA1 Positive Control—Agonist.
Positive Control—Antagonist. 0-10 μM Ruthenium Red (8 concentrations, 4 replicates, half log scale).

CB2 receptors = CB2 receptors (Homo sapiens, UniProt P34972); conditions: Shinjyo N 2013; cited from earlier work
Chain of CB2 receptors (P34972 whole entry): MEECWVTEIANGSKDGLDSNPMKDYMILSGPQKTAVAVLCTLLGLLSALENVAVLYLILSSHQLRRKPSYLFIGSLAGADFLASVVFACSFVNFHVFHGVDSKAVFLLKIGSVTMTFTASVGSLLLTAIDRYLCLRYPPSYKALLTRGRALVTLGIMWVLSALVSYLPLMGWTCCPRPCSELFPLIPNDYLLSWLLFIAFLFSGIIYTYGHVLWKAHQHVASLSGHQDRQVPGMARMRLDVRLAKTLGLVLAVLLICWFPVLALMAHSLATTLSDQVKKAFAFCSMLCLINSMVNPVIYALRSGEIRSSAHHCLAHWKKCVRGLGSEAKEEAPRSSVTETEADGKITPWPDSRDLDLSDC

CB1 receptors = CB1 receptors (Homo sapiens, UniProt P21554); conditions: Shinjyo N 2013; cited from earlier work
Chain of CB1 receptors (P21554 whole entry): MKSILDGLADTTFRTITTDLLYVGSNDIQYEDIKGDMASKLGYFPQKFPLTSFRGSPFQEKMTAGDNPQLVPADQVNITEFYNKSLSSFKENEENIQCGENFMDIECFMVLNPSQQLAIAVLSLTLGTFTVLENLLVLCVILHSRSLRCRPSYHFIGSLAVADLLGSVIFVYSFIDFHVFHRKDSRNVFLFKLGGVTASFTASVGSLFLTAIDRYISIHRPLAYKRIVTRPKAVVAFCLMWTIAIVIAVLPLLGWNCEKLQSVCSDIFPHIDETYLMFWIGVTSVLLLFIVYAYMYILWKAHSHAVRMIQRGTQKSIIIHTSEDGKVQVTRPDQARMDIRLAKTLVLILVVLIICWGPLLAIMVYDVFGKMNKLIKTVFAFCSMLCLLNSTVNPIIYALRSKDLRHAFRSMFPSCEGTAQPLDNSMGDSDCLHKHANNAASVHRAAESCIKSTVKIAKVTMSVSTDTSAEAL

[1] = CRC of the article alone, % of 3000 μM Mustard Oil
[2] = CHO, CRC of the article alone, % of 3000 μM Mustard Oil, read-out: EMAX
[3] = in presence of 0.1 μM CBD + THC
[4] = in presence of 0.3 μM CBD + THC

## C=CCN=C=S [Mustard Oil, Allyl isothiocyanate, reference compound]
Human TRPA1 channel; CHO, CRC of the article alone, % of 3000 μM Mustard Oil
  Emax at 3000 µM: 100%
Human TRPA1 channel; CRC of the article alone
  Hill Slope: −1.91
Human TRPA1 channel; [1]
  EMIN: 1.01%

## N.N.N.N.N.N.N.N.N.N.N.N.N.N.[Cl-].[Cl-].[Cl-].[Cl-].[Cl-].[Cl-].[O-2].[O-2].[Ru+3].[Ru+3].[Ru+4] [Ruthenium Red, reference compound]
Human TRPA1 channel; CRC of the article alone
  Hill Slope: 0.85
Human TRPA1 channel; [1]
  EMIN: 0.00%
  Emax: 47.50%
Human TRPA1 channel; inhibition of TRPA1 receptors, CRC 0-10 μM (footnote: IC50 is shown)
  IC50: 1.79 µM

## CO [Methanol]
Human TRPA1 channel; [2]
  Emax: 3.97%
Human TRPA1 channel; [1]
  EMIN: 0.95%

## CCCCCc1cc(O)c2c(c1)OC(C)(CCC=C(C)C)C=C2 (stereo not shown) [CBC, cannabichromene]
CB2 receptors
  Ki: ~0.1 µM
CB1 receptors
  concentrations at which it binds to CB1 receptors: higher than 1 micromolar
Human TRPA1 channel
  Agonist activity at TRPA1 receptors (in words): weak partial agonist activity
Human TRPA1 channel; [2]
  Emax: ~10%
Human TRPA1 channel; CHO, at near threshold activation by CBD+THC mixture (1 μM each), n=4, read-out: Efficacy (EMAX) of CBC
  Emax: 16.2 ± 1.3%
Human TRPA1 channel; CHO, in presence of 0.1 μM CBD + THC, % of 3000 μM Mustard Oil, read-out: EMAX, CBC CRC
  Emax: 10.1%
Human TRPA1 channel; CHO, in presence of 0.3 μM CBD + THC, % of 3000 μM Mustard Oil, read-out: EMAX, CBC CRC
  Emax: 13.1%
Human TRPA1 channel; CHO, in presence of 1 μM CBD + THC, % of 3000 μM Mustard Oil, read-out: EMAX, CBC CRC
  Emax: 17.1%
Human TRPA1 channel; CHO, in presence of 3 μM CBD + THC, % of 3000 μM Mustard Oil, read-out: EMAX, CBC CRC
  Emax: 30.7%
Human TRPA1 channel; CHO, in presence of 10 μM CBD + THC, % of 3000 μM Mustard Oil, read-out: EMAX, CBC CRC
  Emax: 53.2%
Human TRPA1 channel; CHO, in presence of 30 μM CBD + THC, % of 3000 μM Mustard Oil, read-out: EMAX, CBC CRC
  Emax: 60.8%
Human TRPA1 channel; CHO, in presence of 100 μM CBD + THC, % of 3000 μM Mustard Oil, read-out: EMAX, CBC CRC
  Emax: 58.5%
Human TRPA1 channel; CHO, in presence of 300 μM CBD + THC, % of 3000 μM Mustard Oil, read-out: EMAX, CBC CRC
  Emax: 37.2%
Human TRPA1 channel; CRC of the article alone
  Hill Slope: −0.96
Human TRPA1 channel; [1]
  EMIN: 0.86%
  Emax: 10.3±1.9% and 10.31%
Human TRPA1 channel; at near threshold activation by CBD+THC mixture (1 μM each), n=4
  Efficacy (EMAX) of CBC: 16±1%
Human TRPA1 channel; [3]
  Hill Slope, CBC CRC: −3.56
  EC50: 54.5 µM
Human TRPA1 channel; in presence of 0.1 μM CBD + THC, % of 3000 μM Mustard Oil
  EMIN, CBC CRC: 0.92%
Human TRPA1 channel; [4]
  Hill Slope, CBC CRC: −1.00
  EC50: 64.1 µM
Human TRPA1 channel; in presence of 0.3 μM CBD + THC, % of 3000 μM Mustard Oil
  EMIN, CBC CRC: 1.42%
Human TRPA1 channel; in presence of 1 μM CBD + THC
  Hill Slope, CBC CRC: −1.00
  EC50: 26 µM
Human TRPA1 channel; in presence of 1 μM CBD + THC, % of 3000 μM Mustard Oil
  EMIN, CBC CRC: 2.40%
Human TRPA1 channel; in presence of 3 μM CBD + THC, % of 3000 μM Mustard Oil
  EMIN, CBC CRC: 15.03%
Human TRPA1 channel; in presence of 10 μM CBD + THC, % of 3000 μM Mustard Oil
  EMIN, CBC CRC: 42.93%
Human TRPA1 channel; in presence of 30 μM CBD + THC, % of 3000 μM Mustard Oil
  EMIN, CBC CRC: 47.70%
Human TRPA1 channel; in presence of 100 μM CBD + THC, % of 3000 μM Mustard Oil
  EMIN, CBC CRC: 37.89%
Human TRPA1 channel; in presence of 300 μM CBD + THC, % of 3000 μM Mustard Oil
  EMIN, CBC CRC: 29.27%
